Test results taken from patent US8969360B2, “Compounds useful as inhibitors of ATR kinase” (Vertex Pharmaceuticals Incorporated, priority 2013, dated 2015).

Columns and labels:
[1] = target: T1, ATR kinase (Homo sapiens, UniProt Q13535); assay: ATR Inhibition Assay (radioactive-phosphate incorporation); assay type: biochemical; conditions: Ki(app); 5 nM full-length ATR, 10 μM ATP, 800 μM target peptide, 25° C.
T1 construct: Assays were carried out at 25° C. in the presence of 5 nM full-length ATR
T1 sequence (Q13535 whole entry): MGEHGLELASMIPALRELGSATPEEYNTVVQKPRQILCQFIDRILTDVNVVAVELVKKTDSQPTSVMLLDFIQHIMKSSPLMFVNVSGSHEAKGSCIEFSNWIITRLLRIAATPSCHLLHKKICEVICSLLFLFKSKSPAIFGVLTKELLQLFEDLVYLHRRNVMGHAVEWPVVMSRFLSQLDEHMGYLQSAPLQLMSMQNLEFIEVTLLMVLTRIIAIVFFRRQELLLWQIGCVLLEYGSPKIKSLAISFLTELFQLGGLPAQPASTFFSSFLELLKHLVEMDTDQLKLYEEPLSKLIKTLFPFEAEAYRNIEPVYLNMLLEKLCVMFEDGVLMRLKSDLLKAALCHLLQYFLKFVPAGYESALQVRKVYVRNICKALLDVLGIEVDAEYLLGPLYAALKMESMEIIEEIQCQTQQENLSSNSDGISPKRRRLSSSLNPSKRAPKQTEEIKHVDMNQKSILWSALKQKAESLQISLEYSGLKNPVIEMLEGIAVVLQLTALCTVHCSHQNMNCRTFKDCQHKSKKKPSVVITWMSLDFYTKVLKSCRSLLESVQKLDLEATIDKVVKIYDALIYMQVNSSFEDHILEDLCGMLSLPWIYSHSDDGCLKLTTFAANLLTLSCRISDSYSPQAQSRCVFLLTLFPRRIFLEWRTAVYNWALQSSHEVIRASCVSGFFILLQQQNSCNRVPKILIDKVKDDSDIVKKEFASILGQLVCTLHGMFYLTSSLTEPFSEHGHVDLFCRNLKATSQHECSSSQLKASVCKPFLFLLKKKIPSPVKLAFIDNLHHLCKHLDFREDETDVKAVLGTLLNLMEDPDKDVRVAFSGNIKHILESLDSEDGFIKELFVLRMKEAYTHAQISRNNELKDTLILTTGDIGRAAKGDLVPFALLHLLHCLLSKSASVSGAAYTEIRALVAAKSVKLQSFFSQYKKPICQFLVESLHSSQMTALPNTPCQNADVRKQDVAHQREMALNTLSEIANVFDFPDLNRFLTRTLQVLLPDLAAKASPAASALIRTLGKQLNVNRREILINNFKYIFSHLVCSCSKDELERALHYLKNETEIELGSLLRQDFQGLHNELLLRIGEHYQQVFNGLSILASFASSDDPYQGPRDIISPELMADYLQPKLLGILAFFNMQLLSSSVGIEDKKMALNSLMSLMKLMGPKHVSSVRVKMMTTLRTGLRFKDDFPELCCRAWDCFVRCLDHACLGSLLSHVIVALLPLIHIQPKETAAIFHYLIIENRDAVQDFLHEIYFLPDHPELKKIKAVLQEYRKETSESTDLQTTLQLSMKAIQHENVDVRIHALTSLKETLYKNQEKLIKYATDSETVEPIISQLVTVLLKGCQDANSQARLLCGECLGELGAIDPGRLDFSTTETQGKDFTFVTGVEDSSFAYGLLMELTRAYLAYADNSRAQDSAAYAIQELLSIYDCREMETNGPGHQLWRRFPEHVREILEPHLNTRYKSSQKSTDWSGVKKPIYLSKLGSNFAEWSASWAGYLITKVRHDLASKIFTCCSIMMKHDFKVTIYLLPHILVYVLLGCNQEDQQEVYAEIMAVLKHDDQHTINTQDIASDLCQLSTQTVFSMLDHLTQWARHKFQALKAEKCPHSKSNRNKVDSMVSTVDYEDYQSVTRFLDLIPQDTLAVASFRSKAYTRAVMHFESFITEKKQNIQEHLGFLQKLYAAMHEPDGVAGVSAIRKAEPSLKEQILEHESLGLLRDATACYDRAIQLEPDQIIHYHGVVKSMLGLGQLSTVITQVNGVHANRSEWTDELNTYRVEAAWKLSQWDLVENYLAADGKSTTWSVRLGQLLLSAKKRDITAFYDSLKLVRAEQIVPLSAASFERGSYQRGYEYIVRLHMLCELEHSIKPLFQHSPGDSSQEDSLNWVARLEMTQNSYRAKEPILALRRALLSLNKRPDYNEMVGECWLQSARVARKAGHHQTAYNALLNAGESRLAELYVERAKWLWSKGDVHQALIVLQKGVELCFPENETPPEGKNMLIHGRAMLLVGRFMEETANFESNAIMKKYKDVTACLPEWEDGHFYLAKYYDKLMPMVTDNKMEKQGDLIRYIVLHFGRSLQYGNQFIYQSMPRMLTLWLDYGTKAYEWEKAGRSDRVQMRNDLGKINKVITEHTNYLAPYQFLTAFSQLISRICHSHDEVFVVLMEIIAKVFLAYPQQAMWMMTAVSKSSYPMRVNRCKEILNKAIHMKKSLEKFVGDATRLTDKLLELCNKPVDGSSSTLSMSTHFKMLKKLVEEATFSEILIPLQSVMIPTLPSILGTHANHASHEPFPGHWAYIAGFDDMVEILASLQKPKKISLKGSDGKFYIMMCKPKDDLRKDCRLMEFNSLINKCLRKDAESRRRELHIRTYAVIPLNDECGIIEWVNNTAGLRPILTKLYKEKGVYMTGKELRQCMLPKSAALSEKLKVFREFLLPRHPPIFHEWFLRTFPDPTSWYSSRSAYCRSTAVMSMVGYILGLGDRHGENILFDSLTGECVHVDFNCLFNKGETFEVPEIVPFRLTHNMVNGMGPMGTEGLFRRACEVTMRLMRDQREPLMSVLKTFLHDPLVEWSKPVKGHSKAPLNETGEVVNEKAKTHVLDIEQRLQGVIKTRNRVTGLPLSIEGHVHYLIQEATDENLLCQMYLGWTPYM
Outline: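 Full-length ATR (5 nM) in 50 mM Tris/HCl pH 7.5, 10 mM MgCl2, 1 mM DTT, with 800 μM peptide substrate and 10 μM [γ-33P]ATP at 25 °C. Compounds (from 15 μM final, 3-fold dilutions, 7% DMSO) were preincubated 10 min; the reaction was stopped at 24 h. 33P incorporation was captured on phosphocellulose; Ki(app) was from non-linear regression of initial rates.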

[2] = test system: HCT116 colorectal cancer cells; assay: Cisplatin Sensitization Assay (96 h cell viability MTS); assay type: cell-based; conditions: concentration of compound required to reduce the IC50 of Cisplatin alone by at least 3-fold; HCT116, 96 h MTS
Outline: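 HCT116 cells received compound and cisplatin together as a full matrix of 2-fold dilutions, each from a 10 μM top final concentration. After 96 h at 37 °C and 5% CO2, viability was read by MTS (1 h, A490). The value is the compound concentration that lowers the cisplatin IC50 at least 3-fold.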

| Ki [1] | Compound | Synergy with Cisplatin [2] |
| --- | --- | --- |
| 1 to 5 µM | CN(C)C1CCC(Oc2ccncc2NC(=O)c2c(N)nn3ccc(C(F)(F)F)nc23)CC1 (centres unmarked) [I-O-44, 2-amino-N-(4-(((1s,4s)-4-(dimethylamino)cyclohexyl)oxy)pyridin-3-yl)-5-(trifluoromethyl)pyrazolo[1,5-a]pyrimidine-3-carboxamide] | + (Compounds with a Cisplatin sensitization value >0.2 μM but <5 μM are marked with “+.”) |
| 0.01 to 1 µM | CN(C)Cc1ccc(Oc2ccncc2NC(=O)c2c(N)nn3ccc(C(F)(F)F)nc23)cn1 [I-O-45, 2-amino-N-(4-((6-((dimethylamino)methyl)pyridin-3-yl)oxy)pyridin-3-yl)-5-(trifluoromethyl)pyrazolo[1,5-a]pyrimidine-3-carboxamide] | +++ (Compounds with a Cisplatin sensitization value of <0.02 μM are marked with “+++.”) |
| 0.01 to 1 µM | COc1cc(C)ncc1NC(=O)c1c(N)nn2ccc(C(F)(F)F)nc12 [I-O-46, 2-amino-N-(4-methoxy-6-methylpyridin-3-yl)-5-(trifluoromethyl)pyrazolo[1,5-a]pyrimidine-3-carboxamide] | ++ (Compounds with a Cisplatin sensitization value>0.02 μM but <0.2 μM are marked with “++.”) |
| 0.01 to 1 µM | COc1cc(Cl)ncc1NC(=O)c1c(N)nn2ccc(C(F)(F)F)nc12 [I-O-47, 2-amino-N-(6-chloro-4-methoxypyridin-3-yl)-5-(trifluoromethyl)pyrazolo[1,5-a]pyrimidine-3-carboxamide] | ++ (Compounds with a Cisplatin sensitization value>0.02 μM but <0.2 μM are marked with “++.”) |
| 0.01 to 1 µM | COc1c(Cl)cncc1NC(=O)c1c(N)nn2ccc(C(F)(F)F)nc12 [I-O-48, 2-amino-N-(5-chloro-4-methoxypyridin-3-yl)-5-(trifluoromethyl)pyrazolo[1,5-a]pyrimidine-3-carboxamide] | ++ (Compounds with a Cisplatin sensitization value>0.02 μM but <0.2 μM are marked with “++.”) |
| 1 to 5 µM | CN1CCC(Oc2c(Cl)cncc2NC(=O)c2c(N)nn3ccc(C(F)(F)F)nc23)CC1 [I-O-49, 2-amino-N-(5-chloro-4-((1-methylpiperidin-4-yl)oxy)pyridin-3-yl)-5-(trifluoromethyl)pyrazolo[1,5-a]pyrimidine-3-carboxamide] | + (Compounds with a Cisplatin sensitization value >0.2 μM but <5 μM are marked with “+.”) |
| 0.01 to 1 µM | CN(C)CCOc1cc(Cl)ncc1NC(=O)c1c(N)nn2ccc(C(F)(F)F)nc12 [I-O-50, 2-amino-N-(6-chloro-4-(2-(dimethylamino)ethoxy)pyridin-3-yl)-5-(trifluoromethyl)pyrazolo[1,5-a]pyrimidine-3-carboxamide] | ++ (Compounds with a Cisplatin sensitization value>0.02 μM but <0.2 μM are marked with “++.”) |
| 0.01 to 1 µM | CN(C)CCOc1cc(C(F)(F)F)ncc1NC(=O)c1c(N)nn2ccc(C(F)(F)F)nc12 [I-O-51, 2-amino-N-(4-(2-(dimethylamino)ethoxy)-6-(trifluoromethyl)pyridin-3-yl)-5-(trifluoromethyl)pyrazolo[1,5-a]pyrimidine-3-carboxamide] | + (Compounds with a Cisplatin sensitization value >0.2 μM but <5 μM are marked with “+.”) |
| 0.01 to 1 µM | COc1ccncc1NC(=O)c1c(N)nn2ccc(C(C)(C)C#N)nc12 [I-O-52, 2-amino-5-(2-cyanopropan-2-yl)-N-(4-methoxypyridin-3-yl)pyrazolo[1,5-a]pyrimidine-3-carboxamide] | +++ (Compounds with a Cisplatin sensitization value of <0.02 μM are marked with “+++.”) |
| 0.01 to 1 µM | COc1ccncc1NC(=O)c1c(N)nn2ccc(CO)nc12 [I-O-54, 2-amino-5-(hydroxymethyl)-N-(4-methoxypyridin-3-yl)pyrazolo[1,5-a]pyrimidine-3-carboxamide] | ++ (Compounds with a Cisplatin sensitization value>0.02 μM but <0.2 μM are marked with “++.”) |
| 0.01 to 1 µM | C=CCOCc1ccn2nc(N)c(C(=O)Nc3cnccc3OC)c2n1 [I-O-55, 5-((allyloxy)methyl)-2-amino-N-(4-methoxypyridin-3-yl)pyrazolo[1,5-a]pyrimidine-3-carboxamide] | +++ (Compounds with a Cisplatin sensitization value of <0.02 μM are marked with “+++.”) |
| 0.01 to 1 µM | COc1ccncc1NC(=O)c1c(N)nn2ccc(OC3COC3)nc12 [I-O-56, 2-amino-N-(4-methoxypyridin-3-yl)-5-(oxetan-3-yloxy)pyrazolo[1,5-a]pyrimidine-3-carboxamide] | +++ (Compounds with a Cisplatin sensitization value of <0.02 μM are marked with “+++.”) |
| 0.01 to 1 µM | COc1ccncc1NC(=O)c1c(N)nn2ccc(OC3CCN(C)C3)nc12 (centres unmarked) [I-O-57, 2-amino-N-(4-methoxypyridin-3-yl)-5-((1-methylpyrrolidin-3-yl)oxy)pyrazolo[1,5-a]pyrimidine-3-carboxamide] | ++ (Compounds with a Cisplatin sensitization value>0.02 μM but <0.2 μM are marked with “++.”) |
| 0.01 to 1 µM | COc1ccncc1NC(=O)c1c(N)nn2ccc(OC3CCCN(C)C3)nc12 (centres unmarked) [I-O-58, 2-amino-N-(4-methoxypyridin-3-yl)-5-((1-methylpiperidin-3-yl)oxy)pyrazolo[1,5-a]pyrimidine-3-carboxamide] | ++ (Compounds with a Cisplatin sensitization value>0.02 μM but <0.2 μM are marked with “++.”) |
| 0.01 to 1 µM | COc1ccncc1NC(=O)c1c(N)nn2ccc(OCCN3CCC3)nc12 [I-O-59, 2-amino-5-(2-(azetidin-1-yl)ethoxy)-N-(4-methoxypyridin-3-yl)pyrazolo[1,5-a]pyrimidine-3-carboxamide] | ++ (Compounds with a Cisplatin sensitization value>0.02 μM but <0.2 μM are marked with “++.”) |
| 0.01 to 1 µM | COc1ccncc1NC(=O)c1c(N)nn2ccc(OCCN3CCCC3)nc12 [I-O-60, 2-amino-N-(4-methoxypyridin-3-yl)-5-(2-(pyrrolidin-1-yl)ethoxy)pyrazolo[1,5-a]pyrimidine-3-carboxamide] | ++ (Compounds with a Cisplatin sensitization value>0.02 μM but <0.2 μM are marked with “++.”) |
| 0.01 to 1 µM | COc1ccncc1NC(=O)c1c(N)nn2ccc(OC3CCN(C)CC3)nc12 [I-O-61, 2-amino-N-(4-methoxypyridin-3-yl)-5-((1-methylpiperidin-4-yl)oxy)pyrazolo[1,5-a]pyrimidine-3-carboxamide] | ++ (Compounds with a Cisplatin sensitization value>0.02 μM but <0.2 μM are marked with “++.”) |
| 0.01 to 1 µM | COc1ccncc1NC(=O)c1c(N)nn2ccc(OCCN(C)C)nc12 [I-O-62, 2-amino-5-(2-(dimethylamino)ethoxy)-N-(4-methoxypyridin-3-yl)pyrazolo[1,5-a]pyrimidine-3-carboxamide] | ++ (Compounds with a Cisplatin sensitization value>0.02 μM but <0.2 μM are marked with “++.”) |
| 0.01 to 1 µM | COc1ccncc1NC(=O)c1c(N)nn2ccc(OCCCN3CCC3)nc12 [I-O-63, 2-amino-5-(3-(azetidin-1-yl)propoxy)-N-(4-methoxypyridin-3-yl)pyrazolo[1,5-a]pyrimidine-3-carboxamide] | ++ (Compounds with a Cisplatin sensitization value>0.02 μM but <0.2 μM are marked with “++.”) |
